In ChEMBL document CHEMBL3612057, “Discovery of indolizines containing triazine moiety as new leads for the development of antitumoral agents targeting mitotic events” (2015):
Activity calls are given as the source filed them. The rule behind the calls is not given here.

Key:
MCF7 = assay: Cytotoxicity against human MCF7 cells assessed as growth inhibition at 10 uM after 24 hrs by SRB assay; format: functional; conditions: MCF7, 24 h, read-out: GI
[1] = Cytotoxicity against human Hs578T cells assessed as growth inhibition at 10 uM after 24 hrs by SRB assay; format: functional; conditions: Hs-578T, read-out: GI
DU-145 = assay: Cytotoxicity against human DU145 cells after 48 hrs by SRB assay; format: functional; conditions: DU-145, 48 h
SF-295 = assay: Cytotoxicity against human SF295 cells assessed as growth inhibition at 10 uM after 24 hrs by SRB assay; format: functional; conditions: SF-295, 24 h, read-out: GI
SK-MEL-28 [2] = assay: Cytotoxicity against human SK-MEL-28 cells after 48 hrs by SRB assay; format: functional; conditions: SK-MEL-28, 48 h
Ovis aries = species: Ovis aries; assay: Inhibition of sheep tubulin polymerization at 100 uM by fluorescence assay
OVCAR-4 = assay: Cytotoxicity against human OVCAR4 cells assessed as growth inhibition at 10 uM after 24 hrs by SRB assay; format: functional; conditions: OVCAR-4, 24 h, read-out: GI
786-0 [3] = assay: Cytotoxicity against human 786-0 cells assessed as growth inhibition at 10 uM after 24 hrs by SRB assay; format: functional; conditions: 786-0, 24 h, read-out: GI
RXF 393 [4] = assay: Cytotoxicity against human RXF393 cells after 48 hrs by SRB assay; format: functional; conditions: RXF 393, 48 h
CAKI-1 = assay: Cytotoxicity against human CAKI-1 cells assessed as growth inhibition at 10 uM after 24 hrs by SRB assay; format: functional; conditions: CAKI-1, 24 h, read-out: GI
HOP-62 [5] = assay: Cytotoxicity against human HOP62 cells after 48 hrs by SRB assay; format: functional; conditions: HOP-62, 48 h
SNB-75 [6] = assay: Cytotoxicity against human SNB75 cells after 48 hrs by SRB assay; format: functional; conditions: SNB-75, 48 h
TK-10 [7] = assay: Cytotoxicity against human TK10 cells after 48 hrs by SRB assay; format: functional; conditions: TK-10, 48 h
ACHN = assay: Cytotoxicity against human ACHN cells assessed as growth inhibition at 10 uM after 24 hrs by SRB assay; format: functional; conditions: read-out: GI
SK-MEL-5 = assay: Cytotoxicity against human SK-MEL-5 cells assessed as growth inhibition at 10 uM after 24 hrs by SRB assay; format: functional; conditions: SK-MEL-5, 24 h, read-out: GI
RXF 393 [8] = assay: Cytotoxicity against human RXF393 cells assessed as growth inhibition at 10 uM after 24 hrs by SRB assay; format: functional; conditions: RXF 393, 24 h, read-out: GI
PC-3 = assay: Cytotoxicity against human PC3 cells assessed as growth inhibition at 10 uM after 24 hrs by SRB assay; format: functional; conditions: PC-3, 24 h, read-out: GI
Malme-3M = assay: Cytotoxicity against human MALME-3M cells assessed as growth inhibition at 10 uM after 24 hrs by SRB assay; format: functional; conditions: read-out: GI
HOP-92 [9] = assay: Cytotoxicity against human HOP92 cells assessed as growth inhibition at 10 uM after 24 hrs by SRB assay; format: functional; conditions: HOP-92, 24 h, read-out: GI
MDA-MB-231 [10] = assay: Cytotoxicity against human MDA-MB-231 cells assessed as growth inhibition at 10 uM after 24 hrs by SRB assay; format: functional; conditions: MDA-MB-231, 24 h, read-out: GI
HCT-116 = assay: Cytotoxicity against human HCT116 cells assessed as growth inhibition at 10 uM after 24 hrs by SRB assay; format: functional; conditions: HCT-116, 24 h, read-out: GI
RPMI-8226 = assay: Cytotoxicity against human RPMI8226 cells assessed as growth inhibition at 10 uM after 24 hrs by SRB assay; format: functional; conditions: RPMI-8226, 24 h, read-out: GI
K562 = assay: Cytotoxicity against human K562 cells assessed as growth inhibition at 10 uM after 24 hrs by SRB assay; format: functional; conditions: K562, 24 h, read-out: GI
NCI-H226 = assay: Cytotoxicity against human NCI-H226 cells assessed as growth inhibition at 10 uM after 24 hrs by SRB assay; format: functional; conditions: NCI-H226, 24 h, read-out: GI
SR = assay: Cytotoxicity against human SR cells assessed as growth inhibition at 10 uM after 24 hrs by SRB assay; format: functional; conditions: read-out: GI
786-0 [11] = assay: Cytotoxicity against human 786-0 cells after 48 hrs by SRB assay; format: functional; conditions: 786-0, 48 h
MDA-MB-435 = assay: Cytotoxicity against human MDA-MB-435 cells assessed as growth inhibition at 10 uM after 24 hrs by SRB assay; format: functional; conditions: MDA-MB-435, 24 h, read-out: GI
SK-OV-3 = assay: Cytotoxicity against human SKOV3 cells assessed as growth inhibition at 10 uM after 24 hrs by SRB assay; format: functional; conditions: SK-OV-3, 24 h, read-out: GI
NCI-H460 = assay: Cytotoxicity against human NCI-H460 cells assessed as growth inhibition at 10 uM after 24 hrs by SRB assay; format: functional; conditions: NCI-H460, 24 h, read-out: GI
U-251 [12] = assay: Cytotoxicity against human U251 cells assessed as growth inhibition at 10 uM after 24 hrs by SRB assay; format: functional; conditions: U-251, 24 h, read-out: GI
CCRF-CEM = assay: Cytotoxicity against human CCRF-CEM cells assessed as growth inhibition at 10 uM after 24 hrs by SRB assay; format: functional
NCI-H522 = assay: Cytotoxicity against human NCI-H522 cells assessed as growth inhibition at 10 uM after 24 hrs by SRB assay; format: functional; conditions: NCI-H522, 24 h, read-out: GI
OVCAR-8 = assay: Cytotoxicity against human OVCAR8 cells assessed as growth inhibition at 10 uM after 24 hrs by SRB assay; format: functional; conditions: OVCAR-8, 24 h, read-out: GI
MDA-MB-231 [13] = assay: Cytotoxicity against human MDA-MB-231 cells after 48 hrs by SRB assay; format: functional; conditions: MDA-MB-231, 48 h
SK-MEL-28 [14] = assay: Cytotoxicity against human SK-MEL-28 cells assessed as growth inhibition at 10 uM after 24 hrs by SRB assay; format: functional; conditions: SK-MEL-28, 24 h, read-out: GI
HOP-62 [15] = assay: Cytotoxicity against human HOP62 cells assessed as growth inhibition at 10 uM after 24 hrs by SRB assay; format: functional; conditions: HOP-62, 24 h, read-out: GI
TK-10 [16] = assay: Cytotoxicity against human TK10 cells assessed as growth inhibition at 10 uM after 24 hrs by SRB assay; format: functional; conditions: TK-10, 24 h, read-out: GI
UACC-62 = assay: Cytotoxicity against human UACC62 cells assessed as growth inhibition at 10 uM after 24 hrs by SRB assay; format: functional; conditions: UACC-62, 24 h, read-out: GI
SNB-75 [17] = assay: Cytotoxicity against human SNB75 cells assessed as growth inhibition at 10 uM after 24 hrs by SRB assay; format: functional; conditions: SNB-75, 24 h, read-out: GI
A549 = assay: Cytotoxicity against human A549 cells assessed as growth inhibition at 10 uM after 24 hrs by SRB assay; format: functional; conditions: A549, 24 h, read-out: GI
NCI/ADR-RES = assay: Cytotoxicity against human NCI/ADR-RES cells assessed as growth inhibition at 10 uM after 24 hrs by SRB assay; format: functional; conditions: read-out: GI
T47D = assay: Cytotoxicity against human T47D cells assessed as growth inhibition at 10 uM after 24 hrs by SRB assay; format: functional; conditions: read-out: GI
OVCAR-3 = assay: Cytotoxicity against human OVCAR3 cells assessed as growth inhibition at 10 uM after 24 hrs by SRB assay; format: functional; conditions: OVCAR-3, 24 h, read-out: GI
UACC-257 = assay: Cytotoxicity against human UACC257 cells assessed as growth inhibition at 10 uM after 24 hrs by SRB assay; format: functional; conditions: UACC-257, 24 h, read-out: GI
HOP-92 [18] = assay: Cytotoxicity against human HOP92 cells after 48 hrs by SRB assay; format: functional; conditions: HOP-92, 48 h
U-251 [19] = assay: Cytotoxicity against human U251 cells after 48 hrs by SRB assay; format: functional; conditions: U-251, 48 h
SF-539 = assay: Cytotoxicity against human SF539 cells assessed as growth inhibition at 10 uM after 24 hrs by SRB assay; format: functional; conditions: SF-539, 24 h, read-out: GI
HL-60(TB) = assay: Cytotoxicity against human HL-60(TB) cells assessed as growth inhibition at 10 uM after 24 hrs by SRB assay; format: functional; conditions: HL-60, 24 h, read-out: GI

SMILES: COc1nc(OC)nc(-c2cc(C(=O)c3ccc(Br)cc3)n3ccccc23)n1
- inhibition of growth at 10 µM (MCF7): 18%
- inhibition of growth at 10 µM [1]: 96%
- GI50 (DU-145): 29100 nM
- inhibition of growth at 10 µM (SF-295): 87%
- GI50 (SK-MEL-28 [2]): 83800 nM
- inhibition (Ovis aries): inactive
- inhibition of growth at 10 µM (OVCAR-4): 88%
- inhibition of growth at 10 µM (786-0 [3]): 59%
- GI50 (RXF 393 [4]): 4740 nM
- inhibition of growth at 10 µM (CAKI-1): 56%
- GI50 (HOP-62 [5]): 2180 nM
- GI50 (SNB-75 [6]): 870 nM
- GI50 (TK-10 [7]): 3320 nM
- inhibition of growth at 10 µM (ACHN): 70%
- inhibition of growth at 10 µM (SK-MEL-5): 27%
- inhibition of growth at 10 µM (RXF 393 [8]): 75%
- inhibition of growth at 10 µM (PC-3): 55%
- inhibition of growth at 10 µM (Malme-3M): 37%
- inhibition of growth at 10 µM (HOP-92 [9]): 59%
- inhibition of growth at 10 µM (MDA-MB-231 [10]): 48%
- inhibition of growth at 10 µM (HCT-116): 65%
- inhibition of growth at 10 µM (RPMI-8226): 26%
- inhibition of growth at 10 µM (K562): 22%
- inhibition of growth at 10 µM (NCI-H226): 75%
- inhibition of growth at 10 µM (SR): 36%
- GI50 (786-0 [11]): 2600 nM
- inhibition of growth at 10 µM (MDA-MB-435): 45%
- inhibition of growth at 10 µM (SK-OV-3): -11%
- inhibition of growth at 10 µM (NCI-H460): 70%
- inhibition of growth at 10 µM (U-251 [12]): 61%
- growth inhibition (GI) (CCRF-CEM): inactive
- inhibition of growth at 10 µM (NCI-H522): 40%
- inhibition of growth at 10 µM (OVCAR-8): 52%
- GI50 (MDA-MB-231 [13]): 920 nM
- inhibition of growth at 10 µM (SK-MEL-28 [14]): 63%
- inhibition of growth at 10 µM (HOP-62 [15]): 96%
- inhibition of growth at 10 µM (TK-10 [16]): 78%
- inhibition of growth at 10 µM (UACC-62): 30%
- inhibition of growth at 10 µM (SNB-75 [17]): -5%
- inhibition of growth at 10 µM (A549): 62%
- inhibition of growth at 10 µM (NCI/ADR-RES): 50%
- inhibition of growth at 10 µM (T47D): 52%
- inhibition of growth at 10 µM (OVCAR-3): 44%
- inhibition of growth at 10 µM (UACC-257): 62%
- GI50 (HOP-92 [18]): 1080 nM
- GI50 (U-251 [19]): 1870 nM
- inhibition of growth at 10 µM (SF-539): 76%
- inhibition of growth at 10 µM (HL-60(TB)): 12%
